Test results: PubChem BioAssay (NCI)
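Each compound was tested at five concentrations against cells in 96-well plates for 48 hours. The concentration for full growth arrest is given as TGI.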

Legend:
Experiment in all cases: NCI-60 cell line screen, 48 h
[1] = test system: TK-10 renal
[2] = test system: NCI-H226 lung
[3] = test system: T-47D breast
[4] = test system: SF-268 CNS
[5] = test system: SF-539 CNS
[6] = test system: SK-MEL-2 melanoma
[7] = test system: U251 CNS
[8] = test system: SR leukemia
[9] = test system: OVCAR-8 ovarian
[10] = test system: MDA-N
[11] = test system: DU-145 prostate
[12] = test system: HS 578T breast
[13] = test system: HL-60(TB) leukemia
[14] = test system: HOP-62 NSCLC
[15] = test system: XF 498 CNS
[16] = test system: DMS 273 small cell lung
[17] = test system: KM20L2 colon
[18] = test system: HOP-18 NSCLC
[19] = test system: RXF-631 renal
[20] = test system: DMS 114 small cell lung

Structure (SMILES)	TGI [1] [µM]	TGI [2] [µM]	TGI [3] [µM]	TGI [4] [µM]	TGI [5] [µM]	TGI [6] [µM]	TGI [7] [µM]	TGI [8] [µM]	TGI [9] [µM]	TGI [10] [µM]	TGI [11] [µM]	TGI [12] [µM]	TGI [13] [µM]	TGI [14] [µM]	TGI [15] [µM]	TGI [16] [µM]	TGI [17] [µM]	TGI [18] [µM]	TGI [19] [µM]	TGI [20] [µM]
Cc1cc(C)c(S(=O)(=O)N(CCCCN)OCCCN)c(C)c1	32	31.8	33.4	34.3	41.6	30.9	28.8	38	32.8	31.1	29.4	34.4								
COc1cc(C2C3=C(CCC3=O)Oc3cc4c(cc32)OCO4)cc(OC)c1OC (stereo not drawn)	69.2						> 100		> 100				0.596	0.742	0.736	> 100	0.664	> 100	78.3	0.725
